Test results reported in patent EP4299736A2, “HYDROLASES AND USES THEREOF” (Vilnius University, priority 2022, dated 2024).

Key:
Experiment in all cases: Spectrophotometric assay of hydrolytic activity (kinetic parameters)
Assay type in all cases: biochemical
[1] = target: hydrolase Seq ID No: 1 (metagenomic, wild-type hydrolase) (uncultured bacterium, UniProt A0ACD6BAS6); conditions: potassium phosphate buffer, pH 7.5, 22 °C
Description: (§1) For the spectrophotometric assay, the reaction was started by adding an appropriate amount of protein to potassium phosphate buffer, pH 7.5 supplemented with 0.3, 0.15, 0.1, 0.075, 0.05, 0.0375, 0.025, 0.0125 mM N^4-benzoyl-2'-deoxycytidine, or 1, 0.8, 0.5, 0.4, 0.25, 0.2, 0.1, 0.05 mM 2'-deoxycytidine. Then, decreases in absorbance at either 310 for N^4-benzoyl-2'-deoxycytidine or 290 nm for 2'-deoxycytidine were recorded at 22 °C. Kinetic parameters (Table x) were calculated using Imfit-py 1.0.2 software fitting the experimental data to a simple Michaelis-Menten kinetics scheme. Table 5. Kinetic parameters of hydrolases. Substrate: BzdC - N4-benzoyl-2'-deoxycytidine; dC-2'-deoxycytidine.

[2] = system: hydrolase Seq ID No: 3 (metagenomic hydrolase); conditions: potassium phosphate buffer, pH 7.5, 22 °C
Description: as §1

[3] = target: hydrolase variant Seq ID No: 10 (site-directed mutant) (uncultured bacterium, UniProt A0ACD6BAS6, DEL127-130, form not given); conditions: potassium phosphate buffer, pH 7.5, 22 °C, 310 nm
Source text: (§2) Mutations in the hydrolase's genes were introduced using methodology based on "Phusion™ Site-Directed Mutagenesis Kit" (Thermo Fisher Scientific). For specific mutagenesis, primer pairs meant to amplify the whole plasmid with the target protein gene, where one primer has miss-matched base pairs in the middle, were created (Fw/Rv): […]/[…] (SEQ ID NO:10); [formula] [formula] […]/[…] (SEQ ID NO:13); [formula] [formula] […]/[…] and […]/[…] (SEQ ID NO: 16, SEQ ID NO: 17, SEQ ID NO: 18); [formula] […]/[…] (SEQ ID NO: 21); [formula] […]/[…] (SEQ ID NO: 23); […]/[…] (SEQ ID NO: 24).
as §1

[4] = target: hydrolase variant Seq ID No: 11 (site-directed mutant) (uncultured bacterium, UniProt A0ACD6BAS6); conditions: potassium phosphate buffer, pH 7.5, 22 °C, 310 nm
Source text: as §2, §1

[5] = target: hydrolase variant Seq ID No:13 (site-directed mutant) (uncultured bacterium, UniProt A0ACD6BAS6, form not given/G85I); conditions: potassium phosphate buffer, pH 7.5, 22 °C; 310 nm (BzdC) or 290 nm (dC)
Source text: as §2, §1

[6] = target: hydrolase variant Seq ID No: 15 (site-directed mutant) (uncultured bacterium, UniProt A0ACD6BAS6); conditions: potassium phosphate buffer, pH 7.5, 22 °C, 310 nm (BzdC) or 290 nm (dC)
Source text: as §2, §1

[7] = target: hydrolase variant Seq ID No: 12 (site-directed mutant) (uncultured bacterium, UniProt A0ACD6BAS6); conditions: potassium phosphate buffer, pH 7.5, 22 °C; 310 nm; unit not given
Source text: as §2, §1

[8] = 310 nm (BzdC) or 290 nm (dC), unit not given
[9] = absorbance decrease at 310 nm (BzdC) or 290 nm (dC), Michaelis-Menten fit

hydrolase Seq ID No: 1 (metagenomic, wild-type hydrolase), sequence (A0ACD6BAS6 entry or part of it): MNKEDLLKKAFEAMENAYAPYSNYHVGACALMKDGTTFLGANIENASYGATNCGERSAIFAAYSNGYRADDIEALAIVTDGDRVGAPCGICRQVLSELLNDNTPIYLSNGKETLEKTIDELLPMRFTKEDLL
hydrolase variant Seq ID No: 15 (site-directed mutant), sequence (A0ACD6BAS6 entry or part of it, change not shown): as the sequence (A0ACD6BAS6 entry or part of it) above
hydrolase variant Seq ID No: 11 (site-directed mutant), sequence (A0ACD6BAS6 entry or part of it, change not shown): as the sequence (A0ACD6BAS6 entry or part of it) above
hydrolase variant Seq ID No: 10 (site-directed mutant), sequence (A0ACD6BAS6 entry or part of it DEL127-130): as the sequence (A0ACD6BAS6 entry or part of it) above
hydrolase variant Seq ID No:13 (site-directed mutant), sequence (A0ACD6BAS6 entry or part of it G85I, form open): as the sequence (A0ACD6BAS6 entry or part of it) above
hydrolase variant Seq ID No: 12 (site-directed mutant), sequence (A0ACD6BAS6 entry or part of it, change not shown): as the sequence (A0ACD6BAS6 entry or part of it) above

In the case of `O=C(Nc1ccn([C@H]2C[C@H](O)[C@@H](CO)O2)c(=O)n1)c1ccccc1` [BzdC, N4-benzoyl-2'-deoxycytidine], the kcat ([1]; 310 nm (BzdC) or 290 nm (dC)) is reported as “(5.04 ± 0.4) ×10^-1 s^-1”, the Vmax [1, 8] is reported as “(1.00 ± 0.08) × 10^-4” and the Km [1, 9] is reported as 115 µM. For the same compound, the kcat ([2]; 310 nm (BzdC) or 290 nm (dC)) was “(3.81 +/- 0.24) × 10 ^-1 s^-1”, the Vmax [2, 8] was “(6.55 ± 0.41) × 10^-5” and the Km [2, 9] was 46.5 µM. For the same compound, the kcat [3] was “(5.41 ± 0.23) × 10^-2 s^-1”, the Vmax ([3]; unit not given) was “(5.49 ± 0.23) × 10^-5” and the kcat [4] was “(3.88 ± 0.80) × 10^-2 s^-1”. For the same compound, the Vmax ([4]; unit not given) was “(4.56 ± 0.093) × 10^-5”, the kcat [5] was “(2.36 ± 0.01) × 10 ^-1 s^-1” and the kcat [6] was “(1.22 ± 0.09) × 10^-2 s^-1”. For the same compound, the Vmax ([6]; unit not given) was “(3.17 ± 0.25) × 10^-5” and the Vmax [7] was “(1.19 ± 0.15) × 10^-4”.
